For one molecule, IC50, inhibition and compound remaining results are on record in publication PMC12573178, “Substrate-Guided Development of HDAC11-Selective Inhibitors Featuring α‑Amino Amide Zinc-Binding Groups” (ACS Omega, 2025).

Data set [1] has as its target T1, SIRT3 (Homo sapiens, UniProt Q9NTG7).
T1 sequence (Q9NTG7 1-399): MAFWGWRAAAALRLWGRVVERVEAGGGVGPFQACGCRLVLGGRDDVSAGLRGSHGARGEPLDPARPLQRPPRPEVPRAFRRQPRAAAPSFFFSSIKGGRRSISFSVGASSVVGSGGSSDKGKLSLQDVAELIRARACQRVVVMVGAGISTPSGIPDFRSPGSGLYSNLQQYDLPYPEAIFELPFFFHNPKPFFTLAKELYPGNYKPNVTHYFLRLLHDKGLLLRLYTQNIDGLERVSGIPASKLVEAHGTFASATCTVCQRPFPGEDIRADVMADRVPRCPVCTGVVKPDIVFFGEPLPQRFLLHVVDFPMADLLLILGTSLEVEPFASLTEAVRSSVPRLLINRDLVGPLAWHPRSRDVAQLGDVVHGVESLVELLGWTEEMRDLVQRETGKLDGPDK
The experiment in a line: SIRT3 discontinuous demyristoylation inhibition assay. Type of data set: biochemical. As to the method:
Inhibition of the enzymatic activity of HDACs was performed continuously for HDAC8, HDAC11, and SIRT2 and discontinuously for SIRT2, 3, and 6 using adequate substrates as described previously. , Experimental details are given in the Supporting Information.
A. HDAC and SIRT deacylase activity assays […]
140 mM NaCl, 10 mM MgCl 2, 1 mM tris(2-carboxyethyl)phosphine (TCEP), and 0.2 mg/ml BSA, pH 7.4 adjusted with NaOH), HDAC11 buffer (20 mM HEPES, 70 µM TCEP and 2 mg/ml BSA, pH 7.4 adjusted with NaOH) or SIRT buffer (20 mM Tris, 150 mM NaCl, 5 mM MgCl2 and 2 mg/ml BSA pH 7.8 adjusted with HCl), respectively. The thiotrifluoracetylated substrate Abz-SRGGK(thio-TFA)FFRR-NH2 (50 µM) […]
Aun is N-(2-aminobenzoyl)-11-aminoundecanoyl, was used for HDAC11 and Ac-EALPKK(Myr)T-C(Fluorescein)-G-NH2 (40 nM) was used for SIRT2 1-3. […]
(substrate, DMSO, and Buffer) controls were included in every measurement and were set as 100% and 0%, respectively. The measured values were normalized accordingly. […]
Reactions were stopped after 20 min by adding a constant volume of reaction mixture to stop solution (5 % acetonitrile (ACN) (v/v) and 1 % trifluoroacetic acid (TFA) (v/v) in dd. H 2O). The samples were analysed using HPLC-UV/VIS at λ Abs = 220 nm, λ Ex = 320 nm und λ Em = 420 nm. […]
100 nM, SIRT3: 200 nM, SIRT6: 500 nM). […] The samples were analysed using HPLC-UV/VIS at λ Abs = 360 nm. […]

Data set [2] can be described thus: Compound stability in human serum. Type of data set: in vitro ADME. Conditions: 37 °C, 150 μM 31, after 24 h. Here is the method:
H Stability and permeability of 31 […]
stability was performed as described 21. Briefly, 400 µl of human serum or cell lysate from HEK293 cells (1 mg/ml) were incubated at 37 °C with 150 μM of 31 with 5% (v/v) DMSO. Samples of 45 µl were taken out at different time points and quenched with 50 µl of aqueous urea (6 M) and 100 µl of ACN.
Following centrifugation, 2 µl of a 2% (m/v) K 2CO3 solution in H2O and 1.5 µl of a 0.2 M Fmoc-OSu in ACN were added to the samples, which were then shaken at 1000 rpm for two hours at room temperature. This enabled the quantification of the residual amount of the compound via UPLC-UV/VIS at 260 nm. Compound peak areas were integrated. The experiments were performed in triplicate.
After 24h, 7% of 31 remained […]
detectable in cell lysate, and 20 % of 31 were still present in human serum (Figure S 38). […]
shown as mean values relative to the peak intensity at 0 h. Error bars represent the SD of three replicates.
For cell permeability studies, 40 µM of 31 were incubated with HEK293 cells in DMEM medium supplemented with 10 % FCS at 37°C overnight. The cells were harvested, washed extensively with ice-cold PBS and lysed in RIPA buffer. The sample was diluted 1:1 (v/v) with a solution of ACN : H 2O (1:1 )) before analyzing via UPLC-MS. […]

On to `CCCCCCCCCCCCSC[C@@H](N)C(=O)NCCCC[C@@H]1NC(=O)[C@H](CCC(N)=O)NC1=O` [Compound 31], for which the IC50 (usually the concentration at which inhibition is half-maximal) in data set [1] is over 100 µM. In data set [1] (50 μM 31), the inhibition (usually the change of the read-out against control, counted positive when it falls) at 50 µM stood at 1.6%. In data set [2], the compound remaining was 20%.
